Test [1] addresses T1, complexes formed by Nanchung and Water witch proteins (Wtrw + Nan) (Drosophila melanogaster, UniProt Q9VHY7+Q9VUD5).
T1 construct: adenoviral co-expression in CHO-K1 cells, fluo-4 calcium FLIPR
T1 sequence (Q9VUD5 1-833): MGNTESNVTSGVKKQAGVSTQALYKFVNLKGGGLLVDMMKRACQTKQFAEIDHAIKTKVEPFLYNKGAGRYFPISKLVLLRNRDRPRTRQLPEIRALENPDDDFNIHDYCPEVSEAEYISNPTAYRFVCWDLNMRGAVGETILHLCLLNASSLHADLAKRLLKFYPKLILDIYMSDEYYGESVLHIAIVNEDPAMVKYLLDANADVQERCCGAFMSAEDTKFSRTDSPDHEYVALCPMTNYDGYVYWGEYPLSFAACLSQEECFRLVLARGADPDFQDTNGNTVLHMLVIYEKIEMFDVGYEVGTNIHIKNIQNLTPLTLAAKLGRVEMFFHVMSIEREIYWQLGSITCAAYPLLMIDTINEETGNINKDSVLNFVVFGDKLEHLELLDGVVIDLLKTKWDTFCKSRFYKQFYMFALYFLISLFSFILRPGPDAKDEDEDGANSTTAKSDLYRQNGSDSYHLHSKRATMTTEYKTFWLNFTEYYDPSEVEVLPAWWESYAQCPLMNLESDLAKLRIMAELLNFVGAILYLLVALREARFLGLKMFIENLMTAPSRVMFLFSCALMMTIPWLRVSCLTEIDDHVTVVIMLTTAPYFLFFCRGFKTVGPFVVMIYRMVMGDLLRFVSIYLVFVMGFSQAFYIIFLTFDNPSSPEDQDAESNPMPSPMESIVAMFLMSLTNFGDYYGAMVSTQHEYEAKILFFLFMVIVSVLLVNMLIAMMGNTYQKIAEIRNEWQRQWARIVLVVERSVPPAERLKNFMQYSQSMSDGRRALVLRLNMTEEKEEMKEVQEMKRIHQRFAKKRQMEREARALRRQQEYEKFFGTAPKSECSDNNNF
T1 sequence (Q9VHY7 1-986): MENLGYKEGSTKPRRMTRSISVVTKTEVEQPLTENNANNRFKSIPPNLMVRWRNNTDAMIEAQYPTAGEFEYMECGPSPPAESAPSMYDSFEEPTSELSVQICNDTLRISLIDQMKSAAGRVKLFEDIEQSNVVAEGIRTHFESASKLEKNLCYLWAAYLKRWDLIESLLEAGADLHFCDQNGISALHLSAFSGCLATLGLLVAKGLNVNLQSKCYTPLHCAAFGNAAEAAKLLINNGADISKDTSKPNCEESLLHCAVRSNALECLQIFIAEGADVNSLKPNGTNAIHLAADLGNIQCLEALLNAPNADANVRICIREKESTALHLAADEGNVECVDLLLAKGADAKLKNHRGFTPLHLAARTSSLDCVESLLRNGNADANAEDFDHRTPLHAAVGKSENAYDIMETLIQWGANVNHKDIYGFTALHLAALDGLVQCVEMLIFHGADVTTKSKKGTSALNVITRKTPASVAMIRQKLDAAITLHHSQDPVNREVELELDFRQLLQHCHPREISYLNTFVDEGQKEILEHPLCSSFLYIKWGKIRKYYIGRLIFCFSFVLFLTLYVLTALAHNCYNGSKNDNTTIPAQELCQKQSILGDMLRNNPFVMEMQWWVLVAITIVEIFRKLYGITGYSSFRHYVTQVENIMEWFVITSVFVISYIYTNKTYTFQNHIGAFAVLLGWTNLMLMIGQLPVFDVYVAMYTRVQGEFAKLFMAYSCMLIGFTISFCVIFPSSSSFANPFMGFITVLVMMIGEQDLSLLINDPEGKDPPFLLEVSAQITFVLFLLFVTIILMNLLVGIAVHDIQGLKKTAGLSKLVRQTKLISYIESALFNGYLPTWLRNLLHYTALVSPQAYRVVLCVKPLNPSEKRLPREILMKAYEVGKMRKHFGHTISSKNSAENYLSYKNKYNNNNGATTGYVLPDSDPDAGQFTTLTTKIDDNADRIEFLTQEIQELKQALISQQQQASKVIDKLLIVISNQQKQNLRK
As to the kind of experiment: Calcium mobilization (fluo-4AM, FLIPR-TETRA) in CHO-K1 cells co-expressing Water witch and Nanchung. The test is classed as cell-based. Background: Calcium assays in cells follow changes in intracellular calcium, usually with a dye or a luminescent sensor.

Test [2] deals with T2, complexes formed by Nanchung protein and Inactive protein (Nan + Iav) (Drosophila melanogaster, UniProt Q9VUD5+Q9W3W0).
T2 construct: full-length Iav C-terminally fused to FLAG tags and AcGFP; adenoviral co-expression in CHO-K1, membranes; [3H]-afidopyropen tracer
T2 sequence (Q9VUD5 1-833): T1 sequence (Q9VUD5 1-833)
T2 sequence (Q9W3W0 1-1123): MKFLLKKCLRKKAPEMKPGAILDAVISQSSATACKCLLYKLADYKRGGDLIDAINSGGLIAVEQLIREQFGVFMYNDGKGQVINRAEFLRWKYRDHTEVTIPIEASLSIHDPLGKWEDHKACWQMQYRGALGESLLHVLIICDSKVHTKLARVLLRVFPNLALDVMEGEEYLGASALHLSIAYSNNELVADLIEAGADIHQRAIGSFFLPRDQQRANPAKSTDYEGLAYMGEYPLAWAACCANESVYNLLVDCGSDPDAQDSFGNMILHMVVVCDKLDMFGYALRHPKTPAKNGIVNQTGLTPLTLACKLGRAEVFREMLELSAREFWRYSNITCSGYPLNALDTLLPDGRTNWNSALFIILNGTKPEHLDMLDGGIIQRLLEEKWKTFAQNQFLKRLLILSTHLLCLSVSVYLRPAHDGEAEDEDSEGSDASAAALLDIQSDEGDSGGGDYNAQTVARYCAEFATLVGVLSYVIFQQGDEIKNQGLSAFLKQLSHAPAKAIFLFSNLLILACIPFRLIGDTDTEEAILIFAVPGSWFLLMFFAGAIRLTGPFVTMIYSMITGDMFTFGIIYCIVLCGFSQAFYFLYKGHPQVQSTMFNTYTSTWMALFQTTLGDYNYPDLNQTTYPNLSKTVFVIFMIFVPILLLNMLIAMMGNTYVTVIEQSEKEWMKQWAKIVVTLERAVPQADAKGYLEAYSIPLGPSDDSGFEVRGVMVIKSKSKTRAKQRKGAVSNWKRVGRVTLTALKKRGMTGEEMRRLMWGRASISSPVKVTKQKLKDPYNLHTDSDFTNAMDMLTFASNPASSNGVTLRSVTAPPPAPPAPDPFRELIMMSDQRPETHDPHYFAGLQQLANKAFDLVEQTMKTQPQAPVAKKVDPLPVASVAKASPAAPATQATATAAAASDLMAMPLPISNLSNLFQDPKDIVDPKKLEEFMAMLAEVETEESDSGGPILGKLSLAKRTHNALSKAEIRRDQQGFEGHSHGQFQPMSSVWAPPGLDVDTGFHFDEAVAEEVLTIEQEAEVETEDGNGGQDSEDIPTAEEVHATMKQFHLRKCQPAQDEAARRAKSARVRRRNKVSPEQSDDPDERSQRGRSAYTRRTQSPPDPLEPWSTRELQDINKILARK
Kind of test: Competition binding with [3H]-afidopyropen to membranes from CHO-K1 cells co-expressing Nanchung and Inactive. The conditions noted are these: FIG. 6, [3H]-afidopyropen displacement, Nan (SEQ ID NO 7) C-terminal HA/mCherry, Iav (NP_572353) C-terminal FLAG/AcGFP, pH 7.4, 3 h room temperature, Cheng-Prusoff, read-out: Nan + Iav (Nanchung:Inactive complex) Ki.

In test [3] the target is T3, complexes formed by Nanchung protein and Water witch protein (Nan + Wtrw) (Drosophila melanogaster, UniProt Q9VHY7+Q9VUD5).
T3 construct: adenoviral co-expression in CHO-K1, membranes; [3H]-afidopyropen tracer
T3 sequence (Q9VUD5 1-833): T1 sequence (Q9VUD5 1-833)
T3 sequence (Q9VHY7 1-986): T1 sequence (Q9VHY7 1-986)
Kind of test: Competition binding with [3H]-afidopyropen to membranes from CHO-K1 cells co-expressing Nanchung and Water witch. Conditions: FIG. 6, [3H]-afidopyropen displacement, Nan (SEQ ID NO 7) C-terminal HA/mCherry, Wtrw (SEQ ID NO 63) C-terminal FLAG/AcGFP, pH 7.4, 3 h room temperature, Cheng-Prusoff, read-out: Nan + Wtrw (Nanchung:Water witch complex) Ki.

A word on the pEC50: it is the negative decadic logarithm of the EC50, by convention in mol/L. As a reminder, the pKi is the Ki on a negative log10 scale, so that one unit is a factor of ten.

pEC50, pKi: −log10 of the molar value.

`CC1=NNC(=O)N(/N=C/c2cccnc2)C1` [Pymetrozine, pymetrozine]: the pEC50 in test [1] is 7.02. The pKi is 7.37 in test [2] and 6.99 in test [3].

Values taken from patent publication US20230176038A1, “Methods for Identifying Modulators of Insect Transient Receptor Potential Channels” (BASF Corporation, priority 2019, published 2023).
